What all share (assay): NCI anticancer screen, dose series, 48 h
For test [1], the system named is CAKI-1 renal.
For test [2], the system named is LXFL 529 NSCLC.
Test [3] deals with M19-MEL melanoma.
Test [4] deals with MALME-3M melanoma.
Test [5] concerns OVCAR-4 ovarian.
In test [6] the test system is RPMI-8226 leukemia.
The subject of test [7] is SF-295 CNS.
The subject of test [8] is SF-539 CNS.
Test [9] concerns SNB-78 CNS.
Test [10] deals with SR leukemia.
Test [11] has as its system XF 498 CNS.

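Test compounds were applied to cells in 96-well plates for 48 hours at 5 doses. The concentration for full growth arrest is given as TGI.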 Bounds are passed on as bounds.

Consider `CC1=C(O)C(=O)C2C(=O)C1C1Cc3ccccc3C21` (stereo not given), for which the TGI in test [1], in test [2], in [3], in test [4], in test [5] and in test [6] was greater than 100 µM each time. For the same compound, the TGI in test [7], in test [8], in [9], in test [10] and in [11] was greater than 100 µM throughout.
With `CC(C)NC(=O)OCc1c(CO)c2c(n1C)-c1ccccc1CC2`, the TGI in test [1] is 29.7 µM; in test [3], 59.3 µM; in test [4] it was greater than 31.6 µM; in test [5], 73 µM; in [6], 49.4 µM; in test [7] it was greater than 100 µM. Also, the TGI amounted to 57.3 µM in [8], 86.7 µM in [9] and 31.3 µM in test [11].
Turning to `COc1ccc(/C(Cl)=C(\C=N/O)c2ccc(OC)c(OC)c2)cc1OC`, the TGI in [1], in test [2], in test [3], in [4], in [5] and in test [6] was greater than 100 µM each time. The TGI in [7], in [8], in test [9], in test [10] and in test [11] was greater than 100 µM throughout.
As for `CC(C)N=C(N)NC#N`, the TGI in test [1], in test [2], in test [3], in test [4], in test [5] and in [6] was greater than 100 µM in each case. The TGI in [7], in [8], in test [9] and in test [11] was greater than 100 µM each time.
As for `COC(=O)c1ccc(N=NN(C)COc2ccc(Br)cc2)cc1`, the TGI in [1] was greater than 100 µM; in [3] it was greater than 100 µM; in [4], greater than 100 µM; in test [5], greater than 100 µM; in [6], greater than 79.8 µM; in test [7] it was greater than 100 µM. Moreover, the TGI in test [8], in test [9] and in test [11] was greater than 100 µM in each case.
